Test results reported in patent EP0427427A2, “Use of arylalkylamides in the treatment of neurodegenerative diseases” (FISONS CORPORATION, priority 1989, dated 1991).
Where two headings read alike, the source gives them in different places.

Key:
[1] = test system: Rats; experiment: 4-vessel occlusion model of stroke, viability of CA1 neurons in the hippocampus; assay type: in vivo; conditions: ip doses of 20mg/kg twice daily for one week, first injection 30 minutes after reflow, 30 minutes 4-vessel occlusion, brains at 8 days
[2] = test system: Dogs; experiment: Global ischemia (clamping the ascending aorta), protection of CA1 neurons; conditions: iv, 8 minutes global ischemia, treatment from 30 minutes after reflow, CA1 neurons on day 8
Procedure: (§1) Dogs - Dogs are subjected to 8 minutes global ischemia (clamping the ascending aorta) and are treated iv with drug at 30 minutes after reflow. Treatment is given 6 hours later, b.i.d. for 2 more days and s.i.d. for 4 additional days. On day 8 the brains are removed and again drug protection of the vulnerable CA1 neurons is assessed. The Toxic doses are determined by administering the drug iv to conscious dogs in incremental doses and observing for side effects (we use preictal behaviour or convulsions as an endpoint).

[3] = Inverted screen test of Coughenour et al. (TD50); conditions: mouse, in vivo, mice, oral
[4] = test system: Dogs; conditions: iv
Procedure: as §1

[5] = CD50: seizure following ip injection of the compound; conditions: mouse, in vivo, mice, no inverted screen TD50 performed, CD50 = dose when 50% of mice experience a seizure following ip injection
[6] = test system: Dogs; conditions: conscious dogs, iv incremental doses
Procedure: as §1

[7] = test system: Mice; experiment: Protection against NMDLA induced seizures (convulsions); assay type: in vivo; conditions: Mus musculus, 5 min, ip, evaluated for 5 minutes following iv injection of 150 mg/kg NMDLA
Procedure: NMDA blocking activity may be measured by assessing a compound's ability to protect mice from convulsions induced by intravenous administration of 150 m/k of NMDA according to the procedures of Czuczwar et al., (Neurotransmitters, Seizures and Epilepsy III, edited by G. Nistico et al., Raven Press, New York 1986, pages 235-246). […] […] Animals were kept for 60 min after NMDA dosing and mortality was recorded.

[8] = test system: Mice; experiment: Protection against NMDLA induced mortality; assay type: in vivo; conditions: Mus musculus, 1 h, ip, evaluated over 60 minutes after NMDLA injection (150 mg/kg iv)
Procedure: NMDA blocking activity may be measured by assessing a compound's ability to protect mice from convulsions induced by intravenous administration of 150 m/k of NMDA according to the procedures of Czuczwar et al., (Neurotransmitters, Seizures and Epilepsy III, edited by G. Nistico et al., Raven Press, New York 1986, pages 235-246). Groups of mice were pretreated by 30 min with the test compound by the oral or intraperitoneal routes and then given NMDA. […] Animals were kept for 60 min after NMDA dosing and mortality was recorded.

[9] = test system: Rats; experiment: Neurotoxicity TD50, narrow plank walking test; conditions: narrow plank test one hour after administration
Procedure: Rats - Rats are subjected to the 4-vessel occlusion model of stroke for 30 minutes followed by drug injection at 30 minutes after blood reflow to the brain. The drugs are administered ip twice daily for one week. At 8 days post stroke the brains are removed and protection is determined by determining viability of the vulnerable CA1 neurons in the hippocampus (neutrons associated with short term memory). […] Rats that fall are scored as failures.

[10] = test system: Mice; experiment: Antihypoxia studies (time to mortality in a hypoxic environment); assay type: in vivo; conditions: Mus musculus, oral, dose that produces a 50% increase in the time to mortality in an hypoxic environment
Procedure: Antihypoxia activity, that is, they extension of the lifetime of animals exposed to a hypoxic environment, may be conveniently measured in mice. Groups of mice are tested at various times after the intraperitoneal administration of graded doses of the test compound. The animals' survival time in a temperature controlled hypoxic environment (96% nitrogen and 4% oxygen) is recorded. A statistical comparison is made between coincident vehicle treated animals and the experimental group. […] Other modes of administration can also be used.

SMILES	preventing loss of the CA1 neurons [1]	dose active in protecting dogs against stroke [2] [mg/kg]	TD50 [3] [mg/kg]	dose active in protecting dogs against stroke [4] [mg/kg]	TD50 [5] [mg/kg]	lowest toxic dose for convulsions [6] [mg/kg]	lowest toxic dose for preictal behaviour [6] [mg/kg]	ED50 [7] [mg/kg]	ED50 [8] [mg/kg]	ip doses for TD50s relative to neurotoxicity in the rat [9]	ED50 [10] [mg/kg]
CC(Cc1ccccc1)(NC(=O)CN)c1ccccc1 (stereo not drawn) [Compound A, 2-amino-N-(1,2-diphenyl-1-methylethyl)acetamide]	effective	7.5	–	–	–	–	–	–	–	–	–
NCC(=O)NC(Cc1ccccc1)c1ccccc1 (stereo not drawn) [Compound B, 2-amino-N-(1,2-diphenylethyl)acetamide]	effective	–	236	5	82.4	44	44	33	20.6	47	19.1
